The test system of one test is wild-type viruses. The test can be described thus: Antiviral assays, range over wild-type viruses. In kind it is cell-based, HIV-1. As to conditions: Human immunodeficiency virus 1, read-out: EC50 against wild-type viruses.
The subject of a further test is MDR viruses. The test can be described thus: Antiviral assays, range over MDR viruses. In kind it is cell-based, HIV-1.

In the case of `CC(C)CN(C[C@@H](O)[C@H](Cc1ccccc1)NC(=O)[C@@H]1CN(c2ccccc2)C(=O)O1)S(=O)(=O)c1ccc2ncsc2c1` [15d], the EC50 in the test with wild-type viruses lay in the range of 14 to 41 nM. Also, the “loss of potency against MDR viruses” value in the test with MDR viruses (relative to wild-type viruses) is listed as “about 6 fold”.

With `CC(=O)c1cccc(N2C[C@@H](C(=O)N[C@@H](Cc3ccccc3)[C@H](O)CN(CC(C)C)S(=O)(=O)c3ccc4ncsc4c3)OC2=O)c1` [26d], the concentration for a half-maximal effect (EC50) in the test with wild-type viruses lay in the range of 4.2 to 10.1 nM.

Consider `CC(C)CN(C[C@@H](O)[C@H](Cc1ccccc1)NC(=O)[C@@H]1CN(c2cccc(S(C)(=O)=O)c2)C(=O)O1)S(=O)(=O)c1ccc2ncsc2c1` [27d], for which the half-maximal effective concentration (EC50) with wild-type viruses lay in the range of 3.5 to 5.7 nM. Regarding `COC(=O)Nc1cccc(N2C[C@@H](C(=O)N[C@@H](Cc3ccccc3)[C@H](O)CN(CC(C)C)S(=O)(=O)c3ccc4ncsc4c3)OC2=O)c1` [31d], the EC50 with wild-type viruses was in the range of 1.2 to 3 nM. The “antiviral potency against the MDR HIV-1 variants, better than LPV” value with MDR viruses (compared with LPV) is 3 fold.

Values taken from paper PMC2996262 (Journal of medicinal chemistry, 2010).
